Data set [1] has as its system MHCC97L-derived and patient-derived xenografts. Description: Western blot and immunohistochemistry of resected xenografts. In kind it is in vivo, mouse. As to conditions: HCC patient-derived xenograft PDX1. Here is the method:
5×10^5 MHCC97L cells, 3.5×10^5 cells (for PDX1) and 1×10^5 cells (for PDX2) dissociated from HCC patient derived xenograft (PDX), were injected subcutaneously into the left flank of 4 to 5-week-old male BALB/c nude mice and NOD/SCID mice, respectively. 1×10^4 RIL-175 cells were injected into the right median lobe of the livers from 9 to 12-week-old male C57BL/6N mice. Size of subcutaneously xenografted tumors was measured by an external caliper and tumor volume was estimated by the equation: Volume=½ (Length×Width^2), where the length and width represent the largest and smallest diameters, respectively. Drug administration began when the subcutaneous tumor reached ˜0.05 cm3 in size or at day 5 post-injection (for RIL-175 cells), at which point mice were divided into four groups randomly for daily treatment with DMSO, ifenprodil (20 mg/kg/day, intraperitoneally), sorafenib (28 mg/kg/day, orally), or the combination. […] Tumor volume and body weight of each mouse were then measured every two days. […] The mice were checked every two days, and tumor incidence and latency were recorded. […]
Cells or homogenized tissues collected from xenografts were lysed by 2X RIPA lysis buffer supplemented with protease inhibitor cocktail (ProBlock™ Gold Mammalian, Goldbio), PhosSTOP (Roche), 1 mM Na3VO4, and 1 mM NaF. […] Supernatants were quantified using the Bradford assay (BioRad). […]
On the technique in general: In western blotting, separated proteins are transferred to a membrane and probed.

Data set [2] relates to patient-derived xenografts. The experiment in a line: Limiting dilution and serial transplantation into secondary mouse recipients. Format: in vivo. As to the method: 5×10^5 MHCC97L cells, 3.5×10^5 cells (for PDX1) and 1×10^5 cells (for PDX2) dissociated from HCC patient derived xenograft (PDX), were injected subcutaneously into the left flank of 4 to 5-week-old male BALB/c nude mice and NOD/SCID mice, respectively. 1×10^4 RIL-175 cells were injected into the right median lobe of the livers from 9 to 12-week-old male C57BL/6N mice. Size of subcutaneously xenografted tumors was measured by an external caliper and tumor volume was estimated by the equation: Volume=½ (Length×Width^2), where the length and width represent the largest and smallest diameters, respectively. Drug administration began when the subcutaneous tumor reached ˜0.05 cm3 in size or at day 5 post-injection (for RIL-175 cells), at which point mice were divided into four groups randomly for daily treatment with DMSO, ifenprodil (20 mg/kg/day, intraperitoneally), sorafenib (28 mg/kg/day, orally), or the combination. Ifenprodil and sorafenib were purchased from Selleckchem (#54091) and LC laboratories (#S-8502), respectively. The drug treatment was started after grouping, and lasted for 21 days. Tumor volume and body weight of each mouse were then measured every two days. The estimated tumor volume served as a guide for determining the day when the mice were sacrificed to take actual measurements on the resected tumors. The mice were sacrificed, and the tumor tissues were collected at the end of treatment. Part of the tumor tissues was snap-frozen in liquid nitrogen for protein extraction and immunoblot analysis. Part of the tissues was fixed in 4% paraformaldehyde (PFA) at room temperature for histological staining. The remaining tissues were dissociated into single cells for the limiting dilution spheroid formation assay. To evaluate the tumor-initiating and self-renewal abilities of the drug-treated tumors derived from MHCC97L cells and PDX1 in vivo, limiting dilution and serial transplantation assays were performed. 500, 1,000, 5,000, 10,000, 50,000 cells dissociated from the residual tumor tissues were injected subcutaneously into either flank of 4-5 week-old mice. No drug treatment was further applied. The mice were checked every two days, and tumor incidence and latency were recorded. To evaluate HCC metastases, 4×10^4 RIL-175 cells were injected through tail vein into 6- to 8-week-old male nude mice. Drug administration began at day 5 post-injection, and daily treatment with DMSO, ifenprodil (20 mg/kg/day, intraperitoneally), sorafenib (28 mg/kg/day, orally), or the combination was applied for 10 days before resection of lung tumors. At five and twelve days after the tail-vein injection, the mice were administered 100 mg/kg D-luciferin via peritoneal injection for bioluminescent imaging (using the PE IVIS Spectrum in vivo imaging system) to monitor the lung metastasis.
To determine the efficacy of the drug combination of IFEN and SOR in vivo, MHCC97L cell- and HCC patient-derived xenografts were implanted into mice. […] Briefly, HCC patient-derived xenograft was subcutaneously injected in NOD/SCID mice and treated with 20 mg/kg ifenprodil, 28 mg/kg sorafenib, or combination of ifenprodil and sorafenib, for 21 days. Protein lysates were collected from the resected tumors and analyzed by Western blot. […] Spheroid formation assay was performed on cells being harvested from the same residual xenografts to evaluate their self-renewal ability. […] Combined treatment of ifenprodil and sorafenib decreased the repropagation capability of HCC cells in vivo. Residual tumor cells were harvested from the drug(s)-treated patient-derived xenografts and 50,000, 10,000, 5,000, 1,000, and 500 cells were transplanted into secondary NOD/SCID mouse recipients (n=6 per group). Average tumor latency and incidence were recorded, and tumor-initiating cell frequency was calculated.

The test system of another data set is NMDAR subunits. As to conditions: cited from earlier work.
Another data set relates to MHCC97L cells. The experiment in a line: MTT cell viability assay and drug interaction analysis. Format: cell-based, human. As to conditions: single drug. (In general: Formazan colour is commonly taken as a measure of viable cells.)
In data set [3] the test system is HCC patients. The conditions noted are these: Asian study; cited from earlier work.
The test system of data set [4] is HCC patients. The conditions noted are these: cited from earlier work.
For data set [5], the system named is HCC patients. As to conditions: phase III, first line; cited from earlier work.
Setting [6] is: 50,000 cells transplanted, n=6 per group.
Setting [7] is: 50,000 cells transplanted, secondary NOD/SCID recipients.

Results on two compounds are retold here after patent US20230355596A1, “COMPOSITIONS AND METHODS OF USING NMDAR INHIBITORS AND KINASE INHIBITORS TO TREAT LIVER CANCER” (The University of Hong Kong, priority 2022, published 2023).

Molecules are shown by their SMILES. Like-named read-outs stand apart in the source and are kept apart here.

Take `CC(C(O)c1ccc(O)cc1)N1CCC(Cc2ccccc2)CC1` (centres unmarked) [Ifenprodil, ifenprodil]: in data set [1], the “tumor vasculature (CD31-positive vessels)” value was “inhibited tumor vasculature”. The Average tumor latency is listed as 33 days in data set [2] (500 cells transplanted); 28.33 days in data set [2] (1,000 cells transplanted); 31.33 days in data set [2] (5,000 cells transplanted); 21 days in data set [2] (10,000 cells transplanted); 24 days in data set [2] (setting [7]). Further, the Tumor incidence in data set [2] (500 cells transplanted) is listed as 4/6; in data set [2] (1,000 cells transplanted) it was 6/6; in data set [2] (5,000 cells transplanted), 6/6; in data set [2] (10,000 cells transplanted) it was 6/6; in data set [2] (setting [6]), 6/6. In addition, the NMDAR subunit selectivity result in the data set on NMDAR subunits is “more selective for NMDAR1/NMDAR2B subunits”. In addition, the “toxicity / safety as therapeutic agent” value is on record as “tested safe in human” in the data set on NMDAR subunits and “known safety history” with NMDAR subunits (listed as IFEN). Moreover, in the data set with MHCC97L cells, the “HCC growth, NMDAR inhibitor alone” value is listed as “did not significantly suppress”.
For `CNC(=O)c1cc(Oc2ccc(NC(=O)Nc3ccc(Cl)c(C(F)(F)F)c3)cc2)ccn1` [Sorafenib, sorafenib], the “tumor vasculature (CD31-positive vessels)” value in data set [1] was “inhibited tumor vasculature”. Also, the median overall survival with HCC patients [3] is recorded as 6.5 months; in the data set with HCC patients [4] (SHARP trial), 10.7 months. Moreover, the Average tumor latency turned out to be 34 days in data set [2] (500 cells transplanted); 29 days in data set [2] (1,000 cells transplanted); 21.67 days in data set [2] (5,000 cells transplanted); 21.33 days in data set [2] (10,000 cells transplanted); 22.33 days in data set [2] (setting [7]). Besides, the Tumor incidence is reported as 3/6 in data set [2] (500 cells transplanted); 6/6 in data set [2] (1,000 cells transplanted); 6/6 in data set [2] (5,000 cells transplanted); 6/6 in data set [2] (10,000 cells transplanted); 6/6 in data set [2] (setting [6]). Also, in data set [2] (HCC mouse models), the “cancer stemness in the HCC mouse models after treatment” value was “increased cancer stemness”. For the same compound, the tolerability result in the data set on HCC patients [4] (phase III trials) is “generally well tolerated”. In addition, the Median survival in the data set with HCC patients [5] was 9.9 months. Moreover, the discontinuation rate with HCC patients [5] is listed as 33%.
